Tests used:
4T1-HER2 cells [1] = experiment: cell viability by Guava flow cytometry (forward scattering); format: cell-based, murine; details: FIG. 13A; UVADEX alone, 10 μM 8-MOP equivalent; 1 Gy of 80 kVp; p=0.97
Protocol: (§1) As part of the baseline study, in-vitro studies were conducted on plated cells following standard procedures. Cells were maintained in RPMI-1640 supplemented with 10% fetal bovine serum and L-glutamine from GIBCO (Grand Island, N.Y.) growing in a humidified atmosphere of 5% CO2. After incubation, cells were trypsinized and plated evenly onto twelve 12-well plates for 24 hours. About 20 minutes prior to irradiation, the 12 wells of each plate were exposed to the following combinations of additives: (1) control—cells only with no additives, (2) UVADEX only, (3) phosphors only, (4) UVADEX+ phosphors. Each plate had 12 wells with three wells for each of the four treatment arms. […]
(§2) Two primary flow cytometry analyses were used, both determined at 48 hours after treatment. […] The first analysis evaluated was metabolic cell viability (herein referred to as cell viability) calculated from the number of whole cells per well as determined using forward scattering (FSC). […]
(§3) FIGS. 13A-13D illustrates the efficacy of treatment in-vitro in 4T1-HER2 cells, utilizing a regimen of 1/10-diluted UVADEX (with equivalent of 10 uM 8-MOP), 50 μg/mL phosphor 1 Gy of 80 kVp x-rays. […] In FIG. 13A, cell viability after treatment (10 μM 8-MOP equivalent dilution of UVADEX, 50 μg/mL phosphor, 1 Gy of 80 kVp radiation) as determined by Guava flow cytome cytometry is depicted. […]

4T1-HER2 cells [2] = experiment: Methylene blue staining for cell viability; format: cell-based, murine; details: FIGS. 13C, 13D; individual components; 1 Gy of 80 kVp x-rays; UVADEX 10 uM 8-MOP equivalent, phosphor 25, 50, 100 μg/mL
Source text: Methylene blue staining of viable 4T1-HER2 cells confirms that the device works well according to the target parameters identified above. A plate having six (6) wells is subjected to treatment. […] One well (#1) is the control. One well (#2) has phosphor coated with EC and DLC (H100). One well (#3) has phosphor coated with EC (but no DLC). One well (#4) has drug UVADEX but no phosphors. One well (#5) has drug UVADEX and phosphors coated with EC and DLC. One well (#6) has drug UVADEX and phosphors coated with EC and no DLC.
All wells were exposed to the x-ray conditions noted above. […] One added benefit to a dual coating is redundancy in safety of the treatment.
(§4) Other assays were used to provide independent complimentary information on cell viability, e.g. Methylene blue staining and ATP-induced Luminescence imaging (Cell-Titer-Glo® Luminescence Cell Viability Assay). The luminescence imaging permitted investigation of the cytotoxicity of psoralen activated directly with a UV lamp, and in the absence of phosphors and x-ray radiation.
FIGS. 13A-13D illustrates the efficacy of treatment in-vitro in 4T1-HER2 cells, utilizing a regimen of 1/10-diluted UVADEX (with equivalent of 10 uM 8-MOP), 50 μg/mL phosphor 1 Gy of 80 kVp x-rays. FIG. 13A presents the cell viability data for three treatment conditions: UVADEX alone, phosphors alone, and the combination of UVADEX and phosphors. […]

4T1-HER2 cells [3] = experiment: Annexin V positivity by flow cytometry; format: cell-based, murine; details: FIG. 13B; either with or without x-ray (p values of 0.90 and 0.09)
Protocol: as §1, §2, §3

4T1 = experiment: Cell-Titer-Glo Luminescence Cell Viability Assay, UV activated psoralen; format: cell-based, murine; details: FIG. 14A; psoralen 40 μM; UV light 0, 0.25, 0.5, 1.0 J/cm^2; N=4
Source text: as §4
(§5) FIG. 14B presents data on CT2A malignant glioma cells, for a range of treatment parameters including variable x-ray dose (0, 0.67 and 1 Gy), phosphor concentration (50 or 100 μg) and psoralen concentration (8-MOP) at 10, 20 and 40 μM respectively. […] N=4 for each cell line at each UV light condition (0, 0.25, 0.5, 1.0 J/cm^2). The psoralen concentration was 40 μM. For FIG. 14B, in CT2A cells, the treatment cytotoxicity increases with X-ray dose (0, 0.67 and 1.00 Gy respectively), concentration of 8-MOP psoralen (10, 20 and 40 μM respectively), and phosphor (50 and 100 μg/ml) respectively (p values shown thereon).

[4] = system: CT2A (murine malignant glioma); experiment: as above; format: cell-based; details: FIG. 14A; psoralen 40 μM; UV light 0, 0.25, 0.5, 1.0 J/cm^2; N=4
Source text: as §4, §5

[5] = system: KP-B (sarcoma) cell lines; experiment: as above; format: cell-based, mice; details: FIG. 14A; psoralen 40 μM; UV light 0, 0.25, 0.5, 1.0 J/cm^2; N=4
Source text: The mouse breast cancer cell line 4T1 was purchased from ATCC. 4T1-HER2 was provided by Dr. Michael Kershaw (Cancer Immunology Program, Peter MacCallum Cancer Centre, Victoria, Australia) and maintained in DMEM with penicillin/streptomycin and 10% FBS The Sarcoma KP-B cell lines were derived from primary tumors LSL-Kras; p53 Flox/Flox mice (45).
as §4, §5

Compound	effect of addition of radiation on cell viability (4T1-HER2 cells [1])	cell viability by methyl blue staining (4T1-HER2 cells [2])	apoptotic activity (Annexin V) (4T1-HER2 cells [3])	viable cells (4T1)	viable cells [4]	viable cells [5]
COc1c2occc2cc2ccc(=O)oc12 [UVADEX, 8-methoxypsoralen]	no significant effect on cell viability	little effect	negligible apoptotic activity	–	–	–
O=c1ccc2cc3ccoc3cc2o1 [psoralen]	–	–	–	reduce viable cells	reduce viable cells	reduce viable cells

Reference: patent US10940329B2, “Phosphor-containing drug activator activatable by a Monte Carlo derived x-ray exposure, system containing the activator, and methods for use” (IMMUNOLIGHT, LLC, priority 2016, dated 2021)
